Drawing on patent US9499550B2 (BRISTOL-MYERS SQUIBB COMPANY, priority 2012, dated 2016), this text covers EC50 for nine compounds.

Where two headings read alike, the source gives them in different places.

Test [1] concerns HCV genotype 1a (H77 strain) replicon in HUH-7 cells. The experiment in a line: HCV replicon luciferase reporter assay, genotype 1a. The format is cell-based. The following applies: 3 days incubation. The source says:
(§1) Generation of HCV Replicon
(§2) An HCV replicon whole cell system was established as described by Lohmann V, Korner F, Koch J, Herian U, Theilmann L, Bartenschlager R., Science 285(5424):110-3 (1999) and modified to introduce a luciferase reporter, as first described by Krieger et al (Krieger N, Lohmann V, and Bartenschlager R, J. Virol. 75(10):4614-4624 (2001)). CDNA encoding a humanized form of the Renilla luciferase gene and a linker sequence fused directly to the 3′-end of the luciferase gene were introduced into the replicon construct using an Asc1 restriction site located in core, directly upstream of the neomycin marker gene. The adaptive mutation at position 1179 (serine to isoleucine) was also introduced (Blight K J, Kolykhalov, A A, Rice, C M, Science 290(5498):1972-1974). A stable cell line constitutively expressing this HCV replicon construct was generated by first linearizing plasmid DNAs with ScaI. RNA transcripts were synthesized in vitro using the T7 MegaScript transcription kit (Ambion, Austin, Tex.) according to manufacturer's directions. In vitro transcripts of the cDNA were transfected into the human hepatoma cell line, HUH-7. […] Resulting cell lines were characterized for positive and negative strand RNA production and protein production over time.
A stable HCV replicon luciferase reporter cell line representing the genotype 1a H77 strain (Yanagi M, Purcell R H, Emerson S U, et al. Transcripts from a single full-length cDNA clone of hepatitis C virus are infectious when directly transfected into the liver of a chimpanzee. Proc Natl Acad Sci USA 1997; 94(16):8738-8743) was generated as described previously for the genotype 1b(Con1) replicon luciferase cell line. The replicon construct was modified by introducing mutations were introduced into the genes encoding the NS3 helicase domain (proline replaced by leucine at position 1496) and NSSA (serine to isoleucine at position 2204) to improve replication in cell culture.
(§3) HCV Replicon Luciferase Reporter Assay
(§4) HCV replicon luciferase assays were developed to monitor the inhibitory effects of compounds described in the disclosure on HCV genotypes 1a and 1b viral replication. HUH-7 cells, constitutively expressing the HCV replicon, were grown in Dulbecco's Modified Eagle Media (DMEM) (Gibco-BRL) containing 10% Fetal calf serum (FCS) (Sigma) and 1 mg/mL G418 (Gibco-BRL). Compounds were serially diluted 3 folds in DMSO for a twenty-point titration and subsequently transferred to sterile 384-well tissue-culture treated plates (Corning cat #3571). The plates were then seeded with 50 μL of cells at a density of 3.0×10^3 cells/well in DMEM containing 4% FCS (final DMSO concentration at 0.5%). After 3 days incubation at 37° C., cells were analyzed for Renilla Luciferase activity using the EnduRen as substrate (Promega cat #E6485). The EnduRen substrate was diluted in DMEM and then added to the plates to a final concentration of 7.5 μM. The plates were incubated for 2 hrs at 37° C. and then read immediately for 30 seconds with Viewlux Imager (PerkinElmer) using a luminescence program. To assess cytotoxicity of compounds, CC50 values were generated by multiplexing the EnduRen-containing plates with Cell Titer-Blue (Promega, cat # G8082). Cell-Titer Blue (3 μL) was added to each well and incubated for 8 hrs at 37° C. The fluorescence signal from each well was read, with an excitation wavelength at 525/10 nm and an emission wavelength of 598/10 nm, using the Viewlux Imager.
(§5) The EC50 values for compounds were calculated by using a four-parameter logistic equation: y=A+((B−A)/(1+((C/x)^D))), where A and B denotes minimal and maximal % inhibition, respectively, C is the EC50, D is the hill slope and x represents compound concentration.

For test [2], the system named is HCV genotype 1b (Con1) replicon in HUH-7 cells. In words: HCV replicon luciferase reporter assay, genotype 1b. The format is cell-based. The following applies: 3 days incubation.
Source text: as §1
as §2, with “time. […]” for “time.”
as §3, §4, §5
In general terms: Replicon systems follow genome replication, usually without infectious particles.

The mark [3] stands for this setting: HCV genotype 1a replicon luciferase, read-out: LE_1a (EC50, range).
[4] abbreviates: HCV genotype 1b replicon luciferase, read-out: LE_1b (EC50, range).
The mark [5] stands for this setting: Hepatitis C virus, Huh-7, 72 h, HCV genotype 1a replicon luciferase assay, range class, read-out: LE_1a (EC50, range).
Where [6] appears, read: Hepatitis C virus, Huh-7, 72 h, HCV genotype 1b replicon luciferase assay, range class, read-out: LE_1b (EC50, range).

“1,1,1-trifluoro-2-methylpropan-2-yl((2R,6S,7R,9R,13aS,14aR,16aS,Z)-14a-((cyclopropylsulfonyl)carbamoyl)-2-((3,7-dimethoxy-2-(trifluoromethyl)quinoxalin-6-yl)oxy)-7-ethyl-9-methyl-5,16-dioxo-1,2,3,5,6,7,8,9,10,11,13a,14,14a,15,16,16a-hexadecahydrocyclopropa[e]pyrrolo[1,2-a][1,4]diazacyclopentadecin-6-yl)carbamate [Compound 4355]”: the EC50 in test [1] (setting [3]) and in test [2] (setting [4]) was 5.01 to 35 nM in each case.

Regarding “3,3-difluoro-2-methylbutan-2-yl((2R,6S,7R,9R,13aS,14aR,16aS,Z)-7-ethyl-2-((2-(3-fluoro-4-isopropoxyphenyl)-7-methoxyquinolin-4-yl)oxy)-9-methyl-14a-(((1-methylcyclopropyl)sulfonyl)carbamoyl)-5,16-dioxo-1,2,3,5,6,7,8,9,10,11,13a,14,14a,15,16,16a-hexadecahydrocyclopropa[e]pyrrolo[1,2-a][1,4]diazacyclopentadecin-6-yl)carbamate [Compound 5550]”, the EC50 lay within 0.51 to 1 nM in test [1] (setting [3]) and 1.01 to 5 nM in test [2] (setting [4]).

`CC1CC/C=C\[C@@H]2C[C@@]2(C(=O)NS(=O)(=O)C2(CF)CC2)NC(=O)[C@@H]2C[C@@H](Oc3nccc4c5c(ccc34)OCCO5)CN2C(=O)[C@@H](NC(=O)OC(C)(C)C)[C@H](C)C1` (stereo in doubt) [Compound 5321, tert-butyl ((2R,6S,7R,9R,13aS,14aR,16aS,Z)-2-((2,3-dihydro-[1,4]dioxino[2,3-f]isoquinolin-7-yl)oxy)-14a-(((1-(fluoromethyl)cyclopropyl)sulfonyl)carbamoyl)-7,9-dimethyl-5,16-dioxo-1,2,3,5,6,7,8,9,10,11,13a,14,14a,15,16,16a-hexadecahydrocyclopropa[e]pyrrolo[1,2-a][1,4]diazacyclopentadecin-6-yl)carbamate]: the EC50 in test [1] (Hepatitis C virus, Huh-7, 72 h, HCV genotype 1a replicon luciferase, read-out: LE_1a (EC50, range)) was under 5.46 nM; in test [2] (Hepatitis C virus, Huh-7, 72 h, HCV genotype 1b replicon luciferase, read-out: LE_1b (EC50, range)), under 5.46 nM.

`COc1ccc2c(O[C@@H]3C[C@H]4C(=O)N[C@]5(C(=O)NS(=O)(=O)C6CC6)C[C@H]5/C=C\CC[C@@H](C)C[C@@H](C)[C@H](NC(=O)OC(C)(C)C(F)(F)F)C(=O)N4C3)nccc2c1` [Compound 7, 1,1,1-trifluoro-2-methylpropan-2-yl((2R,6S,7R,9R,13aS,14aR,16aS,Z)-14a-((cyclopropylsulfonyl)carbamoyl)-2-((6-methoxyisoquinolin-1-yl)oxy)-7,9-dimethyl-5,16-dioxo-1,2,3,5,6,7,8,9,10,11,13a,14,14a,15,16,16a-hexadecahydrocyclopropa[e]pyrrolo[1,2-a][1,4]diazacyclopentadecin-6-yl)carbamate]: the EC50 in test [1] (setting [5]) and in test [2] (setting [6]) was under 5.46 nM each time.

As for `COc1ccc2c(O[C@@H]3C[C@H]4C(=O)N[C@]5(C(=O)NS(=O)(=O)C6(F)CC6)C[C@H]5/C=C\CC[C@@H](C)C[C@@H](C)[C@H](NC(=O)OC(C)(C)C)C(=O)N4C3)nccc2c1` [Compound 9, tert-butyl ((2R,6S,7R,9R,13aS,14aR,16aS,Z)-14a-(((1-fluorocyclopropyl)sulfonyl)carbamoyl)-2-((6-methoxyisoquinolin-1-yl)oxy)-7,9-dimethyl-5,16-dioxo-1,2,3,5,6,7,8,9,10,11,13a,14,14a,15,16,16a-hexadecahydrocyclopropa[e]pyrrolo[1,2-a][1,4]diazacyclopentadecin-6-yl)carbamate], the concentration for a half-maximal effect (EC50) in test [1] (setting [5]) and in test [2] (setting [6]) was under 5.46 nM in each case.

In the case of `COc1ccc2c(O[C@@H]3C[C@H]4C(=O)N[C@]5(C(=O)NS(=O)(=O)C6(F)CC6)C[C@H]5/C=C\CC[C@H](C)C[C@@H](C)[C@H](NC(=O)OC(C)(C)C)C(=O)N4C3)nccc2c1` [Compound 10, tert-butyl ((2R,6S,7R,9S,13aS,14aR,16aS,Z)-14a-(((1-fluorocyclopropyl)sulfonyl)carbamoyl)-2-((6-methoxyisoquinolin-1-yl)oxy)-7,9-dimethyl-5,16-dioxo-1,2,3,5,6,7,8,9,10,11,13a,14,14a,15,16,16a-hexadecahydrocyclopropa[e]pyrrolo[1,2-a][1,4]diazacyclopentadecin-6-yl)carbamate], the concentration giving a half-maximal response (EC50) was under 5.46 nM in test [1] (setting [5]); 3.08 nM in test [1] (Hepatitis C virus, Huh-7, 72 h, HCV genotype 1a replicon luciferase assay, read-out: LE_1a (EC50)); under 5.46 nM in test [2] (setting [6]); 0.8 nM in test [2] (Hepatitis C virus, Huh-7, 72 h, HCV genotype 1b replicon luciferase assay, read-out: LE_1b (EC50)).

Turning to `COc1ccc2c(O[C@@H]3C[C@H]4C(=O)N[C@]5(C(=O)NS(=O)(=O)C6(F)CC6)C[C@H]5/C=C\CC[C@@H](C)C[C@@H](C)[C@H](NC(=O)OC(C)(C)C(F)(F)F)C(=O)N4C3)nccc2c1` [Compound 11], the EC50 was under 5.46 nM in test [1] (Hepatitis C virus, GETYPE1A, Huh-7, 72 h, HCV genotype 1a replicon luciferase assay, range class, read-out: LE_1a (EC50, range)) and under 5.46 nM in test [2] (Hepatitis C virus, GETYPE1B, Huh-7, 72 h, HCV genotype 1b replicon luciferase assay, range class, read-out: LE_1b (EC50, range)).

As for `COCCn1nc(O[C@@H]2C[C@H]3C(=O)N[C@]4(C(=O)NS(=O)(=O)C5CC5)C[C@H]4/C=C\CC[C@H](C)C[C@@H](C)[C@H](NC(=O)OC(C)(C)C(C)(F)F)C(=O)N3C2)c2ccccc2c1=O` [Compound 1023, 3,3-difluoro-2-methylbutan-2-yl((2R,6S,7R,9S,13aS,14aR,16aS,Z)-14a-((cyclopropylsulfonyl)carbamoyl)-2-((3-(2-methoxyethyl)-4-oxo-3,4-dihydrophthalazin-1-yl)oxy)-7,9-dimethyl-5,16-dioxo-1,2,3,5,6,7,8,9,10,11,13a,14,14a,15,16,16a-hexadecahydrocyclopropa[e]pyrrolo[1,2-a][1,4]diazacyclopentadecin-6-yl)carbamate], the EC50 in test [2] (setting [6]) was over 87.4 nM.

As for `COc1ccc2c(O[C@@H]3C[C@H]4C(=O)N[C@]5(C(=O)NS(=O)(=O)C6(CF)CC6)C[C@H]5/C=C\CC[C@H](C)C[C@@H](C)[C@H](NC(=O)OC(C)(C)C(C)(F)F)C(=O)N4C3)nccc2c1` [Compound 1142, 3,3-difluoro-2-methylbutan-2-yl((2R,6S,7R,9S,13aS,14aR,16aS,Z)-14a-(((1-(fluoromethyl)cyclopropyl)sulfonyl)carbamoyl)-2-((6-methoxyisoquinolin-1-yl)oxy)-7,9-dimethyl-5,16-dioxo-1,2,3,5,6,7,8,9,10,11,13a,14,14a,15,16,16a-hexadecahydrocyclopropa[e]pyrrolo[1,2-a][1,4]diazacyclopentadecin-6-yl)carbamate], in test [2] (setting [6]), the EC50 is under 5.46 nM.

In general, EC50 refers to the concentration at which the effect is half-maximal.
